{
  "source": "patent US9683994B2",
  "about": "“High throughput mobility shift” (Caliper Life Sciences, Inc., priority 2002, dated 2017)",
  "molecular_target": "Protein Kinase A (PKA) (Homo sapiens, UniProt P17612)",
  "assay": "pulsed field mobility shift assay screening for Protein Kinase A (PKA) inhibitors",
  "format": "biochemical",
  "conditions": "from dose response curve (FIG. 10), 7 H9 concentrations 0.15-30.75 μM; pulsed field and standard (constant field) mobility shift assays predict same Ki; read-out: Ki value for the inhibitor",
  "protocol": "In an exemplary embodiment, the pulsed field mobility shift assay was used for screening for Protein Kinase A (PKA) inhibitors. Samples were drawn from a 96 well plate into a microfluidic device through a capillary. The plate contained 7 different concentration samples (0.15 μM, 0.32 μM, 0.63 μM, 1.54 μM, 2.52 μM, 5.05 μM, and 30.75 μM) of H9 at randomly chosen wells. Except for a single well containing the 30.75 μM concentration of H9, two wells contained each of the other six concentrations of H9. The last column of each row of the well plate contained a marker used to indicate the end of row. In this embodiment, the marker was 1 μM of 100% converted PKA product. Once in the reaction channel of the microfluidic device, the pressure driven velocity of the sample was set at 0.028 cm/s and the applied electric field was set to 997 V/cm. […] Each sample was sipped for 30 seconds separated by a 30 second buffer sip. […] From the data in FIGS. 8 and 9, the parameter C1/C0, which is the ratio of the fluorescence measured while the electric field is on to the fluorescence measured while the field is off, was determined for each of the seven H9 concentrations. That parameter was also measured in the absence of H9 to provide a baseline value. The deviation from the baseline value ΔC/C=((C1/C0)|H9sample−(C1/C0)|buffer), was evaluated for each H9 sample. […]",
  "data": [
    {"molecule": "NCCNS(=O)(=O)c1cccc2cnccc12", "note": "[H9]", "values": [
      {"measurement": "Ki", "value": 3.5, "unit": "µM"}
    ]}
  ]
}
